Details of series [1]: method as in earlier work. To be noted: experimental value; ref https://comptox.epa.gov/dashboard, https://echa.europa.eu/es/information-on-chemicals; cited from earlier work.
Series [2] is described as follows: logKow as a measure of bioaccumulation, extracted from public databases. The series is classed as physicochemical. To be noted: yes/no by logKow, REACH cut off 4,5.
Series [3] is described as follows: PBT assessment (persistence, bioaccumulation and FET toxicity combined, logical AND). To be noted: persistent, bioaccumulative and toxic all positive. As to the method: (§1) Acute toxicity was determined using the OECD236 fish embryo acute toxicity (FET) test (OECD guidelines). To assess the PBT potentiality of the analysed compounds, persistence and the logKow as a measure of bioaccumulation were extracted from public databases (https://comptox.epa.gov/dashboard, and https://echa.europa.eu/es/information-on-chemicals).
Ecotoxicity of selected compounds was screened with the FET assay to determine acute toxicity and using available predictions of persistence and bioaccumulation.

A further series has as its system thyroid system. To be noted: cited from earlier work.
For series [4], the system named is androgen and oestrogen receptors. Description: ED assays of androgen and oestrogen receptors (overall experimental ED result). It is filed as cell-based. As to the method:
The transcriptional activation of androgen receptor (AR) assays was carried out by adapting the OECD protocol 458 (OECD [2020]).
MDA-MB-453 cells (8000 cells/well) expressing an AR luciferase reporter were seeded into 384 white plates (Greiner 781098) in culture medium (DMEM (ATCC), 10% foetal bovine serum (Sigma Aldrich), 1% penicillin–streptomycin (Sigma-Aldrich), 75 µg/ml geneticin (Gibco) and incubated overnight at 37 °C 5% CO2 and 95% humidity. After this time, the cell culture medium was discarded and replaced by assay medium (DMEM (ATCC), 0.1% foetal bovine serum (Sigma-Aldrich), and 1% penicillin–streptomycin (Sigma Aldrich)).
For studying a putative agonist effect, compounds were added to the assay plate using an Echo 550 acoustic liquid handler and incubated overnight at 37 °C 5% CO2 and 95% humidity. For studying the putative antagonist effect, compounds were added using an Echo 550 acoustic liquid handler and incubated for 15 min at 37 °C 5% CO2 and 95% humidity. Then, 1 nM 5α-dihydrotestosterone (DHT) was added, and the cell plate was incubated overnight at 37 °C, 5% CO2, and 95% humidity. After compound incubation, the cell medium was removed, 5 µl of lysis buffer 1X (Promega) was added, and the cell plate was incubated with agitation 15 min at room temperature. A freeze–thaw cycle of 10 min at −80 °C and room temperature was performed. Then 25 µl of luciferase assay reagent (Promega) was added and luminescence was determined on an EnSpire plate reader (Perkin Elmer). Data was fitted to a four-parameter sigmoidal model with Prism 5.1 (Graphpad, Inc).
The transcriptional activation of oestrogen receptor (ER) assay was carried out by adapting the OECD protocol 455 (OECD [2021]) and the method of Li et al. ([2013]).
ER luciferase reporter T47D cells (5000 cells/well) were seeded into 384 white plates (Greiner 781098) in culture medium (RPMI 1640 (Thermo Fisher Scientific 52400), 10% foetal bovine serum (Sigma Aldrich F9665), 1% penicillin–streptomycin (Sigma-Aldrich P0781), 75 µg/ml Geneticin (Gibco 10131)) and incubated overnight at 37 °C and 5% CO2. The following day, the cell culture medium was discarded and replaced by assay medium (RPMI 1640 (Thermo Fisher Scientific 52,400), 0.1% foetal bovine serum (Sigma Aldrich F9665), and 1% penicillin–streptomycin (Sigma Aldrich P0781).
The assay was performed as stated before for the AR assay using 17β-estradiol as agonist instead of DHT.
ED was assessed by transactivation in vitro assays to identify agonists and antagonists of the androgen and oestrogen receptors.
Also, the experimental group analysed the endocrine-disrupting activity for the CMR compounds.

Another series has as its system zebrafish embryos. To be noted: FET assay. As to the method:
as §1

Like-named read-outs stand apart in the source and are kept apart here.

`Clc1cc(Cl)c(Cl)c(Cl)c1Cl` [1,2,3,4,5-Pentachlorobenzene]: the “Bioaccumulation (logKow)” value in series [1] is reported as 5.17. The Bioaccumulation entry in series [2] is given as “Yes”. In addition, the entries for the “Potential PBT” value in series [3] (listed as Pentachlorobenzene) and in series [3] (listed as pentachlorobenzene) were “YES” and “potential PBT compounds”, respectively.

Consider `Clc1cc(Cl)c(Cl)c(Cl)c1` [1,2,3,5-Tetrachlorobenzene], for which the “Bioaccumulation (logKow)” value in series [1] was 4.61. Also, the Bioaccumulation result in series [2] is given as “Yes”. The endocrine-disrupting activity result with thyroid system (ref Chu et al. [1983], den Besten et al. [1991]) is “thyroid system affection”. Further, the “Potential PBT” value is “YES” in series [3] and “potential PBT compounds” in series [3] (listed as 1,2,3,5-tetrachlorobenzene). In addition, the Experimental result in series [4] (endocrine disruptor yes/no) was “No”.

On to `Oc1cc(Cl)cc(Cl)c1Cl` [2,3,5-Trichlorophenol], for which, in series [1], the “Bioaccumulation (logKow)” value is recorded as 3.84. In addition, the Bioaccumulation entry in series [2] was “No”. In addition, in series [3], the “Potential PBT” value was “not a potential PBT compound”. Also, the Experimental result in series [4] is “Yes”.

Take `ClC1C(Cl)C(Cl)C(Cl)C(Cl)C1Cl` (stereo not drawn) [(1α,2α,3α,4β,5α,6β)-1,2,3,4,5,6-Hexachlorocyclohexane]: the “Bioaccumulation (logKow)” value in series [1] was 3.95. In addition, in series [2], the Bioaccumulation result is listed as “No”. Moreover, in the series on zebrafish embryos, the acute toxicity result is given as “highly toxic”.

For the compound `O=C(O)C(F)(F)C(F)(F)C(F)(F)C(F)(F)F` [Nonafluorovaleric acid], the endocrine-disrupting activity entry in the series with thyroid system (ref Coperchini et al. [2021], Croce et al. [2019]) was “thyroid system affection”. Moreover, in series [4] (endocrine disruptor yes/no), the Experimental result is on record as “No”.

(Values after article PMC10025185, “A continuous in silico learning strategy to identify safety liabilities in compounds used in the leather and textile industry” (Archives of Toxicology, 2023).)
